Drawing on PubChem BioAssay (NCI), this text covers GI50 and TGI for twelve compounds.

One may read the GI50 as the concentration at which growth is held to half of that of the control. A word on the TGI: it is the concentration at which net growth stops.

Molecules are shown by their SMILES.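 How tested: cells in 96-well plates exposed to compound for 48 hours at five concentrations. GI50 is the concentration that inhibits growth by half. TGI denotes the concentration required for complete inhibition of growth.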 A value given as a limit tells only on which side of the number the result lay.

Some test systems named below: 786-0 renal; TK-10 renal; OVCAR-4 ovarian; PC-3 prostate; T-47D breast; OVCAR-3 ovarian; UACC-62 melanoma; SR leukemia; SK-MEL-2 melanoma; EKVX NSCLC.
Common to all, as to assay: DTP human tumour cell line panel, 48 h

On to `CC(=O)NC(CCc1ccc(Cl)c(Cl)c1)c1cccc(O)c(=O)c1` (stereo not given), for which the GI50 with 786-0 renal was 0.591 µM; in the assay on TK-10 renal, 0.864 µM; in the assay on OVCAR-4 ovarian, 0.302 µM; in the assay with PC-3 prostate, 0.78 µM; in the assay on T-47D breast it was 1.1 µM; in the assay on OVCAR-3 ovarian, 0.358 µM. For the same compound, the values for the GI50 in the assay with UACC-62 melanoma, in the assay on SR leukemia and in the assay with SK-MEL-2 melanoma were 0.619 µM, 0.622 µM and 2.8 µM, respectively. Moreover, the TGI with 786-0 renal is 12 µM; with TK-10 renal it was greater than 100 µM; with OVCAR-4 ovarian it was 40.4 µM; in the assay with PC-3 prostate, 24.7 µM; in the assay on T-47D breast, 38.6 µM; in the assay with OVCAR-3 ovarian it was 14.7 µM. Besides, the TGI in the assay on UACC-62 melanoma came out at 1.98 µM; with SR leukemia, 31.1 µM; in the assay on SK-MEL-2 melanoma, 17.1 µM.
Take `CCN(CC)CCOc1ccc(/C(=C(\C)Cc2ccc(OC)cc2)c2ccc(O)cc2)cc1`: the GI50 is 1.59 µM in the assay on 786-0 renal; 1.82 µM in the assay with TK-10 renal; 2.95 µM in the assay on OVCAR-4 ovarian; 1.54 µM with PC-3 prostate; 1.14 µM with T-47D breast; 2.08 µM with EKVX NSCLC. The GI50 in the assay on OVCAR-3 ovarian is 1.68 µM; in the assay with UACC-62 melanoma, 1.81 µM; in the assay with SR leukemia, 1.39 µM; in the assay with SK-MEL-2 melanoma it was 1.94 µM. Further, the TGI was found to be 3 µM in the assay with 786-0 renal; 3.68 µM in the assay on TK-10 renal; 9.91 µM in the assay with OVCAR-4 ovarian; 3.26 µM with PC-3 prostate; 3.52 µM in the assay with T-47D breast; 6.19 µM in the assay on EKVX NSCLC. Further, the TGI in the assay on OVCAR-3 ovarian turned out to be 3.21 µM; in the assay on UACC-62 melanoma, 3.32 µM; in the assay on SR leukemia it was 3.62 µM; with SK-MEL-2 melanoma it was 3.71 µM.
For `C=CCc1cc(O)ccc1O`, the GI50 was 22.8 µM in the assay on 786-0 renal; 24.9 µM with TK-10 renal; 14 µM with OVCAR-4 ovarian; 12.5 µM in the assay with PC-3 prostate; 16.9 µM with T-47D breast; 41.1 µM with EKVX NSCLC. Further, the GI50 with OVCAR-3 ovarian was 7.64 µM; with UACC-62 melanoma, 25.2 µM; with SR leukemia, 9.14 µM; in the assay with SK-MEL-2 melanoma, 85.5 µM. In addition, the TGI in the assay on 786-0 renal was greater than 100 µM; in the assay with TK-10 renal, 69.2 µM; in the assay with OVCAR-4 ovarian, 27 µM; in the assay on PC-3 prostate, greater than 100 µM; in the assay with T-47D breast it was 84.4 µM; in the assay with EKVX NSCLC, greater than 100 µM. Besides, the TGI was 20.7 µM in the assay with OVCAR-3 ovarian, greater than 100 µM in the assay on UACC-62 melanoma, greater than 100 µM in the assay with SR leukemia and greater than 100 µM in the assay on SK-MEL-2 melanoma.
On to `CC(C)(Oc1cccc(N2CCC[C@@H](C(=O)N(Cc3ccc(-c4cn[nH]c4)cc3)C3CC3)C2)c1)C(=O)N1CCNCC1`, for which the GI50 was 11.7 µM with 786-0 renal; 14.8 µM in the assay on TK-10 renal; 11.1 µM in the assay on OVCAR-4 ovarian; 13.6 µM in the assay with PC-3 prostate; 12.6 µM in the assay on T-47D breast; 13.7 µM in the assay on EKVX NSCLC. The GI50 is 12.4 µM in the assay on OVCAR-3 ovarian, 7.87 µM with SR leukemia and 14.3 µM in the assay on SK-MEL-2 melanoma. For the same compound, the TGI is 25 µM with 786-0 renal; 28.4 µM in the assay with TK-10 renal; 25.2 µM in the assay on OVCAR-4 ovarian; 39.1 µM in the assay with PC-3 prostate; 34.3 µM in the assay with T-47D breast; 27.9 µM with EKVX NSCLC. Besides, the TGI in the assay with OVCAR-3 ovarian is 26 µM; in the assay with SR leukemia it was 28.6 µM; with SK-MEL-2 melanoma, 28 µM.
In the case of `CCNCCS(=O)(=O)NC[C@@]1(c2ccccc2)SC(NC(=O)C(C)(C)C)=NN1C(=O)C(C)(C)C`, the GI50 was 0.341 µM in the assay on 786-0 renal; 19.3 µM in the assay with TK-10 renal; 35.5 µM in the assay on OVCAR-4 ovarian; less than 0.01 µM with PC-3 prostate; less than 0.01 µM in the assay on T-47D breast; less than 0.0314 µM with EKVX NSCLC. Besides, the GI50 in the assay with OVCAR-3 ovarian, in the assay on UACC-62 melanoma, with SR leukemia and in the assay on SK-MEL-2 melanoma was less than 0.01 µM throughout. The TGI in the assay with 786-0 renal, in the assay on TK-10 renal, in the assay on OVCAR-4 ovarian, in the assay with PC-3 prostate, with T-47D breast and in the assay on EKVX NSCLC was greater than 100 µM each time. For the same compound, the TGI is greater than 100 µM in the assay with OVCAR-3 ovarian, greater than 100 µM with UACC-62 melanoma, 22.3 µM in the assay with SR leukemia and 28.4 µM with SK-MEL-2 melanoma.
On to `O=C(Nc1nc2ccc(OC(F)(F)F)cc2s1)c1ccc(F)cc1`, for which the GI50 with 786-0 renal was 3.47 µM; in the assay with TK-10 renal it was 4.06 µM; in the assay on OVCAR-4 ovarian it was 2.95 µM; in the assay with PC-3 prostate it was 2.81 µM; in the assay on T-47D breast it was 2.64 µM; in the assay on EKVX NSCLC, 2.65 µM. Besides, the GI50 with OVCAR-3 ovarian was 2.22 µM; with UACC-62 melanoma, 3.59 µM; in the assay on SR leukemia it was 3.68 µM; in the assay on SK-MEL-2 melanoma it was 3.08 µM. The TGI in the assay on 786-0 renal was greater than 100 µM; in the assay on TK-10 renal, greater than 100 µM; with OVCAR-4 ovarian, greater than 100 µM; in the assay on PC-3 prostate, 8.7 µM; in the assay on T-47D breast, 9.78 µM; with EKVX NSCLC, 10.6 µM. Moreover, the TGI in the assay with OVCAR-3 ovarian is 7.2 µM; in the assay with UACC-62 melanoma, 50.3 µM; in the assay with SR leukemia it was 14.1 µM; with SK-MEL-2 melanoma, 7.39 µM.
As for `Oc1ccc(/C=N/NC(=S)Nc2ccccc2)nc1`, the GI50 with 786-0 renal is 1.84 µM; in the assay with TK-10 renal it was 4.18 µM; in the assay on OVCAR-4 ovarian, 0.579 µM; in the assay with PC-3 prostate, 0.706 µM; in the assay on T-47D breast, 1.54 µM; with OVCAR-3 ovarian, 0.405 µM. Further, the GI50 in the assay on UACC-62 melanoma is 1.55 µM; in the assay on SR leukemia, 0.582 µM; in the assay on SK-MEL-2 melanoma, 1.54 µM. The TGI in the assay with 786-0 renal was 12.4 µM; in the assay with TK-10 renal, greater than 100 µM; in the assay on OVCAR-4 ovarian it was greater than 100 µM; with PC-3 prostate it was greater than 100 µM; in the assay on T-47D breast, greater than 100 µM; with OVCAR-3 ovarian, greater than 100 µM. The TGI in the assay with UACC-62 melanoma is 4.95 µM; with SR leukemia it was greater than 100 µM; in the assay with SK-MEL-2 melanoma it was 44.1 µM.
As to `COc1cc(C2C=C(C)N=C3SC=C(C)N32)cc(OC)c1OC` (stereo not given), the GI50 is 0.827 µM in the assay on 786-0 renal; 2.22 µM in the assay with TK-10 renal; 3.99 µM with OVCAR-4 ovarian; 1.56 µM with PC-3 prostate; 1.91 µM in the assay with T-47D breast; 0.781 µM with OVCAR-3 ovarian. Besides, the figures for the GI50 in the assay on UACC-62 melanoma, in the assay on SR leukemia and in the assay with SK-MEL-2 melanoma were 0.473 µM, 0.249 µM and 2.04 µM, respectively. Besides, the TGI in the assay with 786-0 renal was 2.67 µM; in the assay with TK-10 renal, 5.61 µM; in the assay with OVCAR-4 ovarian, greater than 100 µM; in the assay with PC-3 prostate, 5.88 µM; in the assay on T-47D breast, 7.27 µM; with OVCAR-3 ovarian it was 7.66 µM. Also, the TGI with UACC-62 melanoma was 1.87 µM; in the assay with SR leukemia, greater than 100 µM; in the assay with SK-MEL-2 melanoma it was 4.94 µM.
Consider `CCOC(=O)C(Cc1ccccc1)n1c(O)c(/C=N/c2ncc(Cc3ccc(Cl)cc3Cl)s2)sc1=S` (stereo not given), for which the GI50 with 786-0 renal is 3.15 µM; in the assay on OVCAR-4 ovarian, 3.22 µM; with PC-3 prostate it was 2.08 µM; in the assay with T-47D breast, 2.16 µM; in the assay on EKVX NSCLC, 2.07 µM; in the assay on OVCAR-3 ovarian, 2.84 µM. The GI50 with UACC-62 melanoma is 1.63 µM; in the assay on SR leukemia it was 3.98 µM; in the assay on SK-MEL-2 melanoma, 1.31 µM. For the same compound, the TGI is greater than 100 µM with 786-0 renal; greater than 100 µM in the assay with OVCAR-4 ovarian; greater than 100 µM in the assay on PC-3 prostate; 8.73 µM in the assay with T-47D breast; greater than 100 µM in the assay with EKVX NSCLC; 9.96 µM in the assay on OVCAR-3 ovarian. Moreover, the TGI is 6.37 µM in the assay on UACC-62 melanoma, greater than 100 µM with SR leukemia and 5.68 µM with SK-MEL-2 melanoma.
As to `O=C1NC(=NCCc2ccccc2F)S/C1=C\c1ccc2ncccc2c1`, the GI50 in the assay on 786-0 renal was 8.71 µM; in the assay with TK-10 renal, 5.13 µM; with OVCAR-4 ovarian, 6.45 µM; in the assay with PC-3 prostate it was 13.4 µM; in the assay with T-47D breast, 9.55 µM; in the assay with OVCAR-3 ovarian it was 7.35 µM. For the same compound, the GI50 is 7.1 µM in the assay with UACC-62 melanoma, 0.88 µM in the assay with SR leukemia and 6.16 µM in the assay with SK-MEL-2 melanoma. In addition, the TGI was greater than 25 µM in the assay on 786-0 renal; greater than 25 µM with TK-10 renal; greater than 20.6 µM with OVCAR-4 ovarian; greater than 25 µM in the assay with PC-3 prostate; greater than 25 µM in the assay on T-47D breast; 24.2 µM in the assay with OVCAR-3 ovarian. For the same compound, the TGI was greater than 25 µM in the assay with UACC-62 melanoma, 8.83 µM in the assay on SR leukemia and 14.5 µM in the assay on SK-MEL-2 melanoma.
For `Cn1ccc(S(=O)(=O)N2CCC[C@H](Nc3nccc(-c4c(-c5cccc(O)c5)nc5occn45)n3)C2)n1`, the GI50 is 20.1 µM in the assay with 786-0 renal; 14.3 µM in the assay with TK-10 renal; 14.5 µM in the assay with OVCAR-4 ovarian; 19.4 µM in the assay on PC-3 prostate; 18.5 µM in the assay with T-47D breast; 13.5 µM in the assay with OVCAR-3 ovarian. The figures for the GI50 in the assay on UACC-62 melanoma, with SR leukemia and with SK-MEL-2 melanoma were 0.0643 µM, 8.19 µM and 0.444 µM, respectively. Also, the TGI was greater than 100 µM in the assay on 786-0 renal; 60.2 µM with TK-10 renal; greater than 85.8 µM in the assay on OVCAR-4 ovarian; greater than 100 µM in the assay on PC-3 prostate; 70.5 µM with T-47D breast; 51.9 µM in the assay on OVCAR-3 ovarian. Further, the figures for the TGI in the assay with UACC-62 melanoma, with SR leukemia and in the assay on SK-MEL-2 melanoma were 3.4 µM, 46.2 µM and 10.7 µM, respectively.
As for `NC(=O)NC(=O)Nc1ccc(Br)cc1`, the TGI in the assay on 786-0 renal is greater than 100 µM; with TK-10 renal, greater than 100 µM; in the assay with OVCAR-4 ovarian, greater than 38.5 µM; with PC-3 prostate, greater than 100 µM; with T-47D breast, greater than 100 µM; in the assay with EKVX NSCLC, 48.4 µM. In addition, the TGI in the assay on OVCAR-3 ovarian is greater than 20.7 µM; in the assay with SR leukemia, greater than 100 µM; in the assay with SK-MEL-2 melanoma, greater than 20.7 µM.
